According to patent US9387221B2, “SDF-1 binding nucleic acids and the use thereof in cancer treatment” (NOXXON Pharma AG, priority 2010, dated 2016):
{PEG40k} = 40 kDa polyethylene glycol

Legend:
[1] = biological target: T1, SDF-1 (Homo sapiens, UniProt P48061); assay: Inhibition of SDF-1-induced chemotaxis, U937 cells; format: cell-based; conditions: 3 nM human SDF-1
Experimental: (§1) The human T cell leukemia cell line Jurkat, the human leukemic monocyte lymphoma cell line U937, the human pre-B cell leukemia cell line BV-173 and human pre-B ALL cell line Nalm-6 express CXCR4. […] All cells used were obtained from the DSMZ (Braunschweig). All cell lines were cultivated at 37° C. and 5% CO2 in RPMI 1640 medium with Glutamax (Invitrogen, Karlsruhe, Germany) which contains 10% fetal bovine serum, 100 units/ml penicillin and 100 μg/ml streptomycin (Invitrogen, Karlsruhe, Germany). One day before the experiment, cells were seeded in a new T175 flask with a density of 0.3×10^6/ml (Jurkat, U937, BV-173) or 0.75×10^6/ml (Nalm-6), respectively.
(§2) For the experiment, cells were centrifuged (5 min at 300 g), resuspended, counted and washed once with 15 ml HBH (Hanks balanced salt solution containing 1 mg/ml bovine serum albumin and 20 mM HEPES; Invitrogen, Karlsruhe, Germany). Then the cells were resuspended at 1.33×10^6/ml (Jurkat, U937, BV-173) or 2.67×10^6/ml (Nalm-6), respectively. […]
(§3) For evaluation, fluorescence values were corrected for background fluorescence (no cells in well). Then the difference between experimental conditions with and without SDF-1 was calculated. The value for the sample without Spiegelmer (SDF-1 only) was set 100% and the values for the samples with Spiegelmer were calculated as percent of this. […]

[2] = biological target: T1, SDF-1; assay: Inhibition of SDF-1-induced chemotaxis, BV-173 cells; format: cell-based; conditions: 3 nM human SDF-1
Experimental: as §1, §2, §3

[3] = tested on: stromal MS-5 cells; assay: Viability of stromal MS-5 cells in the coculture; format: cell-based, murine
Experimental: The murine stromal cell line MS-5 (ACC 441) was purchased from the DSMZ, the Multiple Myeloma cell line RPMI8226 (CCL-155) was purchased from the ATCC. The Multiple Myeloma cell line RPMI8226 was maintained in RPMI medium 1640 GlutaMAX (Invitrogen) supplemented with 10% FBS (Biochrom) and penicillin-streptomycin, the MS-5 cells were cultured in MEM alpha GlutaMAX (Invitrogen) with 10% FBS and penicillin-streptomycin. For chemosensitization coculture experiments stromal MS-5 cells were seeded the day before onto 24-well plates (the inner eight wells) at a concentration of 8×10^4/mL/well in MEM alpha GlutaMAX medium (+10% FBS) and incubated at 37° C. in 5% CO2. The confluent stromal cell layer was washed and 0.5 mL RPMI medium 1640 (+1% FBS) was added to the wells. SDF-1 binding […] NOX-A12 or revNOX-A12 was subsequently added to the wells to a final concentration of 100 nM and incubated for four hours. 3.5×10^5 RPMI8226 cells in RPMI medium 1640 (+1% FBS) were added to the stromal cell layer. Four hours later, 1 μ[…] (Sigma Aldrich) was added to the cells when indicated. After 40 hours of incubation the cells were collected in 15 mL tubes, first the supernatant was harvested and then the attached cells were trypsinized including MS-5 cells. […] Cell viability and cell number were determined by Flow Cytometry using the Guava EasyCyte 6HT/2L (Millipore).

[4] = tested on: Luc+/GFP+ MM.1S cells; assay: Multiple myeloma animal model in SCID mice; format: in vivo
From the text: The SDF-1/CXCR4 axis plays a major role in homing and trafficking of multiple myeloma (abbr. MM) cells to the bone marrow (abbr. BM). Therefore, de-adhesion of MM cells from the surrounding BM milieu through SDF-1 inhibition enhances MM sensitivity to therapeutic agents. Azab et al. published a protocol to test the CXCR4 inhibitor AMD3100 potency to disrupt the interaction of MM cells with the BM environment in vivo that affects localization MM cells [, which in turn enhances the sensitivity of MM cells to chemotherapy. […] Based on this protocol (Azab et al. 2009) the SDF-1 binding Spiegelmer NOX-A12 is tested for its potency to disupt the interaction of MM cells with the BM environment in vivo thereby enhancing the sensitivity of the MM cells to therapy.
For the MM animal model severe combined immunodeficient (SCID) mice are used whereby Luc+/GFP+ MM.1S cells (2×10^6/mouse) are injected into the tail vein of SCID mice. After 3 to 4 weeks, sufficient tumor progression is detected by bioluminescence imaging (for protocol see Azab et al. 2009). […]

T1 sequence (P48061 22-89): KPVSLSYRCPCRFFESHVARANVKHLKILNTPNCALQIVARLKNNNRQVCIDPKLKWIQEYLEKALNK

“5′-40 kDa-PEG-GCGUGGUGUGAUCUAGAUGUAUUGGCUGAUCCUAGUCAGGUACGC (5' {PEG40k}, sugars by position and backbone not given here) [NOX-A12]” was tested, and the “inhibition of SDF-1 induced chemotaxis” value [1] was “Inhibition”, the “inhibition of SDF-1 induced chemotaxis” value [2] was “Inhibition” and the “viability of stromal MS-5 cells” value [3] was “neither affected”. For the same substance, the “tumor growth (in vivo bioluminescence)” value ([4]; NOX-A12 20 mg/kg s.c. every other day together with bortezomib 0.5 mg/kg i.p. twice a week) was “reduction of tumor growth” and the “MM cell mobilization (ex vivo flow cytometry)” value ([4]; SCID mice, 20 mg/kg NOX-A12 subcutaneous every other day) was “MM cell mobilization from bone marrow to the blood”.
